From patent publication US10301664B2, “Repurposing non-antimicrobial drugs and clinical molecules to treat bacterial infections” (Purdue Research Foundation, priority 2015, dated 2019)
≈ marks a conversion by molar mass, not a printed value. Like-named read-outs stand apart in the source and are kept apart here.

Legend:
[1] = test system: P. aeruginosa ATCC 15442; assay: Library hits: MIC against P. aeruginosa; type: cell-based
[2] = test system: Methicillin-sensitive S. aureus (MSSA); assay: MIC and MBC against methicillin-sensitive S. aureus isolates (CLSI); type: cell-based; settings: Staphylococcus aureus; for MBC: read-out: MBC; for MIC: read-out: MIC
[3] = test system: E. faecium ATCC 700221 (VRE); assay: MIC and MBC against E. faecium VRE (CLSI), Table 1; type: cell-based; settings: Enterococcus faecium
[4] = test system: Vancomycin-resistant S. aureus (VRSA); assay: MIC and MBC against vancomycin-resistant S. aureus clinical isolates (CLSI); type: cell-based; settings: Staphylococcus aureus, VRSA; for MBC: read-out: MBC; for MIC: read-out: MIC
[5] = test system: Vancomycin-intermediate S. aureus (VISA); assay: MIC and MBC against vancomycin-intermediate S. aureus isolates (CLSI); type: cell-based; settings: Staphylococcus aureus; for MBC: read-out: MBC; for MIC: read-out: MIC
[6] = test system: E. fecalis ATCC 51229 (VRE); assay: MIC and MBC against E. fecalis VRE (CLSI); type: cell-based; settings: Enterococcus
Experimental: The NIH Clinical Collections 1 and 2 (http://www.nihclinicalcollection.com) containing 727 FDA approved drugs and small molecules previously used in human clinical trials with known safety profiles were screened against ESKAPE pathogens. The library was initially screened at a single concentration of 16 μM to identify “hit” non-antibacterial drugs. Once the antimicrobial activity of the drugs was confirmed, we determined their MICs and minimum bactericidal concentrations (MBCs) according to the Clinical and Laboratory Standards Institute (CLSI).

[7] = test system: clinical isolates of S. aureus; assay: MIC90 over clinical isolates of S. aureus; type: cell-based; settings: Staphylococcus aureus, Table 1, read-out: MIC90 (MIC at which 90% of clinical isolates of S. aureus were inhibited)
[8] = test system: S. epidermidis NRS 101; assay: MIC and MBC against S. epidermidis (CLSI); type: cell-based; settings: Staphylococcus epidermidis, NRS101
[9] = test system: A. baumannii ATCC BAA-1605; assay: Library hits: MIC against A. baumannii; type: cell-based
[10] = test system: vancomycin resistant E. faecium ATCC 700221 (VRE); assay: Library hits: MIC/MBC against VRE; type: cell-based; settings: VRE
[11] = test system: MRSA USA200; type: in vivo, BALB/c mice; settings: EB 30 mg/kg or FdUrd 25 mg/kg once daily for three days, monitored six days
Experimental: Animal procedures were approved by the Purdue University Animal Care and Use Committee (PACUC) (protocol no. 1311000988). Eight-week-old female BALB/c mice (Harlan Laboratories, Indianapolis, Ind.) were used for this study. Mice were rendered neutropenic by treatment with cyclophosphamide intraperitoneally (IP) 150 and 100 mg/kg at four days and one day before infection, respectively. Neutropenic mice were inoculated IP with 8×10^8 MRSA USA200. At one hour after infection, the mice were divided into five groups (n=10 per group), and two groups were treated orally with either EB 30 mg/kg or FdUrd 25 mg/kg. Two groups were treated IP with either EB 30 mg/kg or FdUrd 25 mg/kg. One group was used as a control with no treatment. Treatment was continued once daily for two more days (animals received three doses total). Mortality was monitored four times daily for six days, and the cumulative percent survival was determined. The data were subjected to statistical analysis using Kaplan-Meier survival curves. A log rank test was performed for 95% confidence intervals by GraphPad Prism 6.0 (GraphPad Software, La Jolla, Calif.).

[12] = test system: Methicillin resistant S. aureus (MRSA); assay: MIC and MBC against methicillin resistant S. aureus clinical isolates (CLSI); type: cell-based; settings: Staphylococcus aureus; for MBC: read-out: MBC; for MIC: read-out: MIC
[13] = test system: MRSA USA300; assay: Library hits: MIC/MBC against MRSA; type: cell-based, Staphylococcus aureus; settings: Staphylococcus aureus
[14] = MRSA / NRS 119, NRS119 (resistant to linezolid)

## O=c1[nH]c(=O)n([C@H]2C[C@H](O)[C@@H](CO)O2)cc1F [FdUrd, 5-fluoro-2′-deoxyuridine]
[1]
  MIC/MBC: >16 µM
[2]; MSSA / NRS 72
  MBC: 1.95 ng/mL (≈ 7.92 nM)
  MIC: 0.975 ng/mL (≈ 3.96 nM)
[2]; MSSA / NRS 77
  MBC: 0.49 ng/mL (≈ 1.99 nM)
  MIC: 0.49 ng/mL (≈ 1.99 nM)
[2]; MSSA / NRS 846
  MBC: 3.9 ng/mL (≈ 15.8 nM)
  MIC: 3.9 ng/mL (≈ 15.8 nM)
[2]; MSSA / NRS 860
  MBC: 1.95 ng/mL (≈ 7.92 nM)
  MIC: 1.95 ng/mL (≈ 7.92 nM)
[3]
  MBC: 125 ng/mL (≈ 508 nM)
  MIC: 62.5 ng/mL (≈ 254 nM)
[4]; VRSA1
  MBC: 7.8 ng/mL (≈ 31.7 nM)
  MIC: 7.8 ng/mL (≈ 31.7 nM)
[4]; VRSA2
  MBC: 15.6 ng/mL (≈ 63.4 nM)
  MIC: 3.9 ng/mL (≈ 15.8 nM)
[4]; VRSA3a
  MBC: 0.975 ng/mL (≈ 3.96 nM)
  MIC: 0.975 ng/mL (≈ 3.96 nM)
[4]; VRSA3b
  MBC: 0.49 ng/mL (≈ 1.99 nM)
  MIC: 0.49 ng/mL (≈ 1.99 nM)
[4]; VRSA4
  MBC: 3.9 ng/mL (≈ 15.8 nM)
  MIC: 1.95 ng/mL (≈ 7.92 nM)
[4]; VRSA5
  MBC: 1.95 ng/mL (≈ 7.92 nM)
  MIC: 1.95 ng/mL (≈ 7.92 nM)
[4]; VRSA6
  MBC: 1.95 ng/mL (≈ 7.92 nM)
  MIC: 0.49 ng/mL (≈ 1.99 nM)
[4]; VRSA7
  MBC: 3.9 ng/mL (≈ 15.8 nM)
  MIC: 1.95 ng/mL (≈ 7.92 nM)
[4]; VRSA8
  MBC: 0.975 ng/mL (≈ 3.96 nM)
  MIC: 0.49 ng/mL (≈ 1.99 nM)
[4]; VRSA9
  MBC: 1.95 ng/mL (≈ 7.92 nM)
  MIC: 0.975 ng/mL (≈ 3.96 nM)
[4]; VRSA10
  MBC: 0.975 ng/mL (≈ 3.96 nM)
  MIC: 0.975 ng/mL (≈ 3.96 nM)
[4]; VRSA11a
  MBC: 15.6 ng/mL (≈ 63.4 nM)
  MIC: 0.975 ng/mL (≈ 3.96 nM)
[4]; VRSA11b
  MBC: 3.9 ng/mL (≈ 15.8 nM)
  MIC: 0.975 ng/mL (≈ 3.96 nM)
[4]; VRSA12
  MBC: 3.9 ng/mL (≈ 15.8 nM)
  MIC: 1.95 ng/mL (≈ 7.92 nM)
[4]; VRSA13
  MBC: 15.6 ng/mL (≈ 63.4 nM)
  MIC: 1.95 ng/mL (≈ 7.92 nM)
[5]; NRS 1 / VISA, NRS 1
  MBC: 1.95 ng/mL (≈ 7.92 nM)
  MIC: 1.95 ng/mL (≈ 7.92 nM)
[5]; NRS 19 / VISA
  MBC: 1.95 ng/mL (≈ 7.92 nM)
  MIC: 0.49 ng/mL (≈ 1.99 nM)
[5]; NRS 37 / VISA
  MBC: 7.8 ng/mL (≈ 31.7 nM)
  MIC: 1.95 ng/mL (≈ 7.92 nM)
[6]
  MBC: 125 ng/mL (≈ 508 nM)
  MIC: 125 ng/mL (≈ 508 nM)
[7]
  MIC90: 3.9 ng/mL (≈ 15.8 nM)
[8]
  MBC: 7.8 ng/mL (≈ 31.7 nM)
  MIC: 7.8 ng/mL (≈ 31.7 nM)
[9]
  MIC/MBC: >16 µM
[10]
  MBC: 0.5 µM (≈ 0.123 µg/mL)
[10]; read-out: MIC
  MIC: < 0.5 µM
[11]; IP
  mice survival compared to that of control: 100%
[11]; oral
  mice survival compared to that of control: 60%
[12]; MRSA / NRS 70
  MBC: 3.15 ng/mL (≈ 12.8 nM)
  MIC: 3.9 ng/mL (≈ 15.8 nM)
[12]; MRSA / NRS 71
  MBC: 1.95 ng/mL (≈ 7.92 nM)
  MIC: 1.95 ng/mL (≈ 7.92 nM)
[12]; MRSA / NRS 100
  MBC: 0.975 ng/mL (≈ 3.96 nM)
  MIC: 0.975 ng/mL (≈ 3.96 nM)
[12]; MRSA / NRS 108
  MBC: 15.6 ng/mL (≈ 63.4 nM)
  MIC: 7.8 ng/mL (≈ 31.7 nM)
[12]; [14]
  MBC: 15.6 ng/mL (≈ 63.4 nM)
  MIC: 3.9 ng/mL (≈ 15.8 nM)
[12]; MRSA / NRS 123
  MBC: 3.9 ng/mL (≈ 15.8 nM)
  MIC: 0.975 ng/mL (≈ 3.96 nM)
[12]; MRSA / NRS 194
  MBC: 62.5 ng/mL (≈ 254 nM)
  MIC: 3.9 ng/mL (≈ 15.8 nM)
[12]; MRSA / NRS 382
  MBC: 7.8 ng/mL (≈ 31.7 nM)
  MIC: 0.975 ng/mL (≈ 3.96 nM)
[12]; MRSA / NRS 383
  MBC: 7.8 ng/mL (≈ 31.7 nM)
  MIC: 7.8 ng/mL (≈ 31.7 nM)
[12]; MRSA / NRS 384, NRS 384
  MBC: 1.95 ng/mL (≈ 7.92 nM)
  MIC: 1.95 ng/mL (≈ 7.92 nM)
[12]; MRSA / NRS 385, NRS 385
  MBC: 31.5 ng/mL (≈ 128 nM)
  MIC: 31.5 ng/mL (≈ 128 nM)
[12]; MRSA / NRS 386, NRS 386
  MBC: 7.8 ng/mL (≈ 31.7 nM)
  MIC: 1.95 ng/mL (≈ 7.92 nM)
[12]; MRSA / NRS 387, NRS 387
  MBC: 15.6 ng/mL (≈ 63.4 nM)
  MIC: 3.9 ng/mL (≈ 15.8 nM)
[12]; MRSA / NRS 483, NRS 483
  MBC: 7.8 ng/mL (≈ 31.7 nM)
  MIC: 1.95 ng/mL (≈ 7.92 nM)
[12]; MRSA / NRS 484, NRS 484
  MBC: 3.9 ng/mL (≈ 15.8 nM)
  MIC: 0.975 ng/mL (≈ 3.96 nM)
[13]; read-out: MBC
  MBC: 0.5 µM (≈ 0.123 µg/mL)
[13]; read-out: MIC
  MIC: < 0.5 µM
